Experimental data from article PMC7805210, “Study on suitable analysis method for HIV-1 non-catalytic integrase inhibitor” (Virology Journal, 2021).

Key:
[1] = tested on: HIV-1 AD8 strain; assay: Antiviral activity test using the TZM-bl cell luciferase system; settings: for EC50: Human immunodeficiency virus 1, TZM-bl, 48 h
Description: TZM-bl cells were seeded on 96-well cell culture plates at a density of 1 × 10^4 cells/well and cultured overnight. Each drug was twofold serially diluted from 10,000 to 0.15 nM and treated to cells. After a 30 min incubation period, viral infection was performed with 500 TCID50 of HIV-1 AD8. Cells were cultured for 48 h after infection and luciferase activity measured using Beetle-Lysis Juice (PJK GmbH, Kleinblittersdorf, Germany) according to the manufacturer’s instructions. Briefly, the medium was removed, and cells washed three times with 200 μl PBS. Next, 100 μl Beetle-Lysis Juice containing luciferin and ATP were added to each well and incubated for 5 min with protection from sunlight. Subsequently, luciferase activity was measured using a micro beta counter (PerkinElmer, Waltham, MA) after transferring solutions to a white 96-well plate. Anti-HIV efficacy of drugs was determined based on reduced expression of luciferase relative to the virus-only treatment group.
Fig.1 Determination of antiviral activities of integrase inhibitors in the TZM-bl cell line system. Integrase inhibitors were serially diluted and incubated with 1 × 10^4 TZM-bl cells per well during 30 min, followed by infection with 500 TCID50 of HIV-1 AD8 strain. For determination of antiviral efficacy, luciferase activity was measured after 48 h of incubation. Cell culture media of non-infected and infected cells without HIV drug treatment were set as the negative and positive control, respectively.

[2] = tested on: HIV-1 AD8 strain; assay: p24 ELISA antiviral activity in infected MT2 cells; settings: for EC50: Human immunodeficiency virus 1, MT2, 120 h; for SI value (CC50/EC50): MT2 cell system
Description: ELISA was conducted to detect HIV-1 p24 for assessment of antiviral activity using a HIV-1 p24 ELISA kit (XpressBio, Frederick, MD). To this end, MT2 cells seeded on a 96-well cell culture plate at a density of a 1 × 10^4 cells/well were infected with 500 TCID50 of HIV-1 AD8 strain. Each drug was serially diluted threefold (from 10,000 to 0.51 nM) for treatment of cells. After five days of culture at 37 °C with 5% CO2, 100 μl of culture medium was harvested and supernatant obtained by centrifugation for 5 min at 5000 rpm (8400 rcf), with storage at − 80 °C. Cell culture media of non-infected and infected cells without INI treatment were set as the negative and positive control, respectively. The ELISA procedure was conducted according to the manufacturer’s instructions. Briefly, samples were mixed with 20 μl lysis buffer, 200 μl aliquots pipetted into a microplate, and incubated for 1 h at 37 °C. After incubation, the contents of the wells were aspirated and microtitration plates washed six times with 350 μl wash buffer. Each well was treated with 100 μl detection antibody for 1 h at 37 °C, which was subsequently removed by washing under the same conditions. An aliquot (100 μl) of streptavidin-HRP conjugate was added into each well, followed by incubation at room temperature for 30 min. After washing under the same conditions, 100 μl substrate solution was immediately dispensed into each well and incubated for 30 min at room temperature with protection from direct sunlight. For termination of the reaction, 100 μl stop solution was added to each well and absorbance values at 450 nm immediately read using a microplate reader.
MT2 cells infected with 500 TCID50 of HIV-1 AD8 strain were treated with a range of concentrations of each drug. At 5 days post-infection, cell culture media were harvested for p24 ELISA. Media of non-infected and infected cells without HIV drug treatment were set as the negative or positive control, respectively.

[3] = Cell cytotoxicity by WST method (EZ-Cytox) in TZM-bl cells; assay type: cell-based; settings: human, 2 days incubation
Description: (§1) To determine the cytotoxicity of anti-HIV drugs, cell viability was assessed via the water-soluble tetrazolium salt (WST) method using an EZ-Cytox kit (Daeil Lab Service, Seoul, Korea) according to the manufacturer’s instructions. […] Cells were treated with serial dilutions of each drug ([…] dilutions from 50,000 to 2.54 nM). On days 2 and 5 of incubation, 10 μl EZ-Cytox solution was added to each well and incubated for 2 h, followed by spectrophotometric measurement of absorbance at 540 nm.

[4] = Cell cytotoxicity by WST method (EZ-Cytox) in MT2 cells; assay type: cell-based; settings: human, 5 days incubation
Description: as §1

[5] = biological target: T1, HIV-1 integrase (Human immunodeficiency virus type 1 group M subtype B, UniProt P04585); assay: Strand transfer inhibition assay (HIV-1 integrase assay kit); assay type: biochemical; settings: read-out: strand transfer inhibitory activity
T1 construct: 100 μl IN enzyme solution was added to each well; purchased XpressBio, Frederick, MD
Description: The strand transfer assay was performed using the HIV-1 integrase assay kit (XpressBio, Frederick, MD) according to the manufacturer’s instructions. Briefly, 100 μl of 1X donor substrate DNA (DS DNA) solution was added to each well and incubated for 30 min at 37 °C. The liquid was aspirated from the wells and washed 5 times with 300 μl wash buffer, followed by incubation with 200 μl blocking buffer per well for 30 min at 37 °C. Following aspiration of the liquid, wells were washed three times with 200 μl reaction buffer. Next, 100 μl IN enzyme solution was added to each well and incubated under similar conditions followed by removal of liquid and three washes with 200 μl reaction buffer. Each test sample was fivefold serially diluted (from 1000 to 8 μM) in reaction buffer and 50 μl aliquots added per well. After 5 min incubation at room temperature, 50 μl 1X target substrate DNA (TS DNA) solution was directly added to the 50 μl test sample within the wells. Reactions were mixed by tapping the plate gently 3–5 times and incubating for 30 min at 37 °C, washed 5 times with 300 μl wash solution and incubated with 100 μl HRP antibody for 30 min at 37 °C. After washing the plate under the same conditions, 100 μl TMB peroxidase substrate solution was added per well and incubated for 10 min at room temperature. To terminate the reaction, 100 μl TMB stop solution was directly added to wells and absorbance read using a plate reader at 450 nm.
Fig.3 Strand transfer inhibition efficiency of catalytic and non-catalytic integrase inhibitors. a Schematic diagram of the strand transfer assay process. The yellow and blue boxes represent the response under conditions of no IN inhibitor or INSTI, respectively. b Integrase inhibitor compounds at a range of concentrations generated from fivefold serial dilutions were used to treat 3′-end cleaved LTR DS DNA by integrase. After incubation, TS DNA was added to each well for the strand transfer reaction. The reaction products were detected colorimetrically using a HRP-labeled antibody against modified target DNA. "No integrase" and "Integrase only" wells were set as the negative and positive control, respectively

[6] = biological target: T1, HIV-1 integrase; assay: 3'-processing inhibition assay (modified strand transfer assay, inhibitor pre-incubated with IN); assay type: biochemical; settings: 20 nM IN pre-incubated 30 min
Description: To confirm the 3′-processing inhibition activity NCINI, the strand transfer inhibition assay was modified. The plate coating process with DS DNA was conducted in a similar manner. […] Reaction of integrase first with the drug before its reaction with DS DNA is a necessary step to validate the 3′-processing inhibitory activity of the compound. The integrase-inhibitor mixture was added to LTR DS DNA-conjugated 96-well plates. Subsequent steps were conducted in a similar manner as the strand transfer assay.
The subsequent steps were the same as the strand transfer assay protocol (Fig. 4a).
The 3′-processing inhibition assay was performed by modifying the protocol of the strand transfer assay. […] Before addition of LTR dsDNA, fivefold serially diluted integrase inhibitors were incubated with 20 nM integrase for 30 min. The integrase-inhibitor mixtures were treated with LTR dsDNA-conjugated 96-well plates. After incubation, target DNA was added to each well for the strand transfer reaction and the products detected colorimetrically using a HRP-labeled antibody against 3′-modified target DNA. "No integrase" and "integrase-only" wells were set as the negative and positive control, respectively

[7] = tested on: HxB2, NL4.3 and a recombinant NL4.3 strain; settings: against HxB2, NL4.3 and a recombinant NL4.3 strain; cited from earlier work
[8] = biological target: integrase strand transfer; settings: does not inhibit strand transfer; cited from earlier work

For `COc1cc2c(cc1Cc1cccc(Cl)c1F)c(=O)c(C(=O)O)cn2[C@H](CO)C(C)C` [EVG, Elvitegravir], the EC50 [1] was < 0.15 nM, the EC50 [2] was < 0.51 nM and the CC50 at 2 days [3] was 26000 nM. It also gave a CC50 at 5 days [4] of 1260 nM.
In the case of `Cc1nc2ccccc2c(-c2ccc3c4c(ccnc24)CCO3)c1[C@H](OC(C)(C)C)C(=O)O` [BI 224436], the EC50 [1] is reported as 566 nM, the EC50 [2] is reported as 28.7 nM and the CC50 at 2 days [3] is reported as > 50000 nM. The CC50 at 5 days [4] was > 50000 nM, the inhibition at 8 µM [5] was 20% and the inhibition at 1000 µM ([5]; at 1000 μM) was 36%. The “IN inhibition activity (3'-processing, modified protocol)” value ([6]; at 3.2 μM) was 80.65%, the “IN inhibition activity (3'-processing, modified protocol)” value ([6]; at 2000 μM) was 87.14% and the EC50 [7] was 11 to 27 nM. The EC50 [8] was > 50000 nM.
For `Cc1nnc(C(=O)NC(C)(C)c2nc(C(=O)NCc3ccc(F)cc3)c(O)c(=O)n2C)o1` [RAL, Raltegravir], the EC50 [1] was 10.4 nM, the “SI value (CC50/EC50)” value ([1]; TZM-bl cell system) was > 4816.96 and the EC50 [2] was 0.58 nM. For the same compound, the “SI value (CC50/EC50)” value [2] was 11,075.19, the CC50 at 2 days [3] was > 50000 nM and the CC50 at 5 days [4] was 6420 nM. The inhibition at 8 µM [5] was > 50%.
In the case of `C[C@@H]1CCO[C@H]2Cn3cc(C(=O)NCc4ccc(F)cc4F)c(=O)c(O)c3C(=O)N12` [DTG, Dolutegravir], the EC50 [1] is reported as 1.6 nM, the EC50 [2] is reported as < 0.51 nM and the “SI value (CC50/EC50)” value [2] is reported as > 3413.60. For the same compound, the CC50 at 2 days [3] was > 50000 nM, the CC50 at 5 days [4] was 1740 nM and the inhibition at 8 µM [5] was > 50%.
